Source: patent publication US5773573A, “HIV peptides” (priority 1994, dated 1998)
Residues, ends and D or L forms follow the SMILES beside them.

Experiment: White cell and T cell subset counts (CD4, CD8, NK) in HIV infected patient given HEP1
Assay type: in vivo, human
Settings: patient three
Method: The objective of this study was to determine in an HIV infected patient if the induction of immunological tolerance to HEP1 could reduce immune activation and HIV infection. The design of the first clinical experiment was to orally administer HEP1 to the patient in daily 10 mg doses (the lower end of the preferred dose range). This was then followed approximately three months later with a subcutaneous administration of HEP1 at a higher dose of 140 mg. To assess the therapeutic benefit of HEP1, the following disease progression markers were measured by taking blood samples before, during and after each trial and determining: HIV levels by a p24 antigen assay, HIV infectivity by a cellular TCID assay and immune activation by quantitating levels of various lymphocytes.
T cell subsets were measured by adding a whole blood sample to a 4.5 ml tube containing EDTA and staining with monoclonal antibodies to CD3, CD4 and CD8. The percentage of T cells in Peripheral Blood Lymphocytes were determined by flow-cytometric procedures. The numbers of CD4 and CD8 T cells were determined by obtaining total and differential white-cell counts and multiplying by the appropriate factor obtained on flow cytometry.
The following markers of HIV disease progression were assayed: p24Ag (the concentration of HIV p24 protein in picogram/ml in the blood), TCID (the infectivity of the HIV in the cells of blood sample measured by an in vitro cell culture assay in which a serial dilution of the sample was mixed with activated uninfected PBMC and the level of HIV infection determined by p24Ag assay), total white count (immune activation measured by the number of white cells per mm^3), CD4 (the number of CD4 positive cells per mm^3), CD8 (the number of CD8 positive cells per mm^3), NK (the number of Natural Killer cells per mm^3), Lymphocytes (the number of cells per mm^3), Monocytes (the number of cells per mm^3), and Granulocytes (the number of cells per mm^3). Normalised data was calculated by dividing each data point by the value of its data series on day 1 of the trail and multiplying by 100.

[1] = oral HEP1 10 mg daily day 2-22, day-69, before treatment
[2] = orally administered HEP1 10 mg daily
[3] = single subcutaneous HEP1 dose on day 1, day 1*, four hours after injection
[4] = single subcutaneous HEP1 dose on day 1, day 1, before injection
[5] = single subcutaneous HEP1 dose on day 1, day 6, after injection
[6] = single subcutaneous HEP1 dose on day 1, day-7, before treatment
[7] = single subcutaneous HEP1 dose on day 1, day-56, before treatment
[8] = single subcutaneous HEP1 dose on day 1, day-91, end of oral study
[9] = subcutaneous administration of one larger dose of HEP1

SMILES: CC(C)[C@H](NC(=O)[C@@H](NC(=O)[C@H](CCC(=O)O)NC(=O)[C@H](CCCNC(=N)N)NC(=O)[C@H](CCCNC(=N)N)NC(=O)[C@H](CCCCN)NC(=O)[C@H](CCCCN)NC(=O)[C@H](CCC(=O)O)NC(=O)[C@@H](N)[C@@H](C)O)[C@@H](C)O)C(=O)N[C@@H](CCC(=O)O)C(=O)N[C@@H](CCCNC(=N)N)C(=O)N[C@@H](CCC(=O)O)C(=O)N[C@@H](CCCCN)C(=O)N[C@@H](CCC(=O)O)C(=O)O [HEP1, NH2 ThrGluLysLysArgArgGluThrValGluArgGluLysGluCOOH] (H-TEKKRRETVEREKE-OH)
- NK, normalised data (day 1 = 100) [1]: 67
- White count [1]: 7900 cells per mm^3
- White count, normalised data (day 1 = 100) [1]: 96
- CD4 count, course [2]: no significant increase
- CD8, course [2]: increased during treatment
- total white cell count, course (immune activation) [2]: fell during and after treatment and fall
- % Granulocytes [3]: 55%
- % Granulocytes, normalised data (day 1 = 100) [3]: 80
- % Lymphocytes [3]: 33%
- % Lymphocytes, normalised data (day 1 = 100) [3]: 142
- % Monocytes [3]: 11%
- % Monocytes, normalised data (day 1 = 100) [3]: 138
- CD4 [3]: 120 cells per mm^3
- CD4, normalised data (day 1 = 100) [3]: 150
- CD8 [3]: 1130 cells per mm^3
- CD8, normalised data (day 1 = 100) [3]: 128
- Granulocytes [3]: 2530 cells per mm^3
- Granulocytes, normalised data (day 1 = 100) [3]: 66
- Lymphocytes [3]: 1520 cells per mm^3
- Lymphocytes, normalised data (day 1 = 100) [3]: 118
- Monocytes [3]: 510 cells per mm^3
- Monocytes, normalised data (day 1 = 100) [3]: 113
- NK [3]: 30 cells per mm^3
- NK, normalised data (day 1 = 100) [3]: 267
- White count [3]: 4600 cells per mm^3
- White count, normalised data (day 1 = 100) [3]: 82
- % Granulocytes [4]: 69%
- % Granulocytes, normalised data (day 1 = 100) [4]: 100
- % Lymphocytes [4]: 23.3%
- % Lymphocytes, normalised data (day 1 = 100) [4]: 100
- % Monocytes [4]: 8%
- % Monocytes, normalised data (day 1 = 100) [4]: 100
- CD4 [4]: 80 cells per mm^3
- CD4, normalised data (day 1 = 100) [4]: 100
- CD8 [4]: 880 cells per mm^3
- CD8, normalised data (day 1 = 100) [4]: 100
- Granulocytes [4]: 3860 cells per mm^3
- Granulocytes, normalised data (day 1 = 100) [4]: 100
- Lymphocytes [4]: 1290 cells per mm^3
- Lymphocytes, normalised data (day 1 = 100) [4]: 100
- Monocytes [4]: 450 cells per mm^3
- Monocytes, normalised data (day 1 = 100) [4]: 100
- NK [4]: 30 cells per mm^3
- NK, normalised data (day 1 = 100) [4]: 100
- White count [4]: 5600 cells per mm^3
- White count, normalised data (day 1 = 100) [4]: 100
- % Lymphocytes [5]: 22.2%
- CD4 [5]: 80 cells per mm^3
- CD4, normalised data (day 1 = 100) [5]: 100
- CD8 [5]: 780 cells per mm^3
- CD8, normalised data (day 1 = 100) [5]: 89
- White count [5]: 5400 cells per mm^3
- White count, normalised data (day 1 = 100) [5]: 96
- % Granulocytes [6]: 81%
- % Granulocytes, normalised data (day 1 = 100) [6]: 117
- % Lymphocytes [6]: 12.9%
- % Lymphocytes, normalised data (day 1 = 100) [6]: 55
- % Monocytes [6]: 7%
- % Monocytes, normalised data (day 1 = 100) [6]: 88
- CD4 [6]: 70 cells per mm^3
- CD4, normalised data (day 1 = 100) [6]: 88
- CD8 [6]: 670 cells per mm^3
- CD8, normalised data (day 1 = 100) [6]: 76
- Granulocytes [6]: 6640 cells per mm^3
- Granulocytes, normalised data (day 1 = 100) [6]: 172
- Lymphocytes [6]: 980 cells per mm^3
- Lymphocytes, normalised data (day 1 = 100) [6]: 76
- Monocytes [6]: 570 cells per mm^3
- Monocytes, normalised data (day 1 = 100) [6]: 127
- NK [6]: 40 cells per mm^3
- NK, normalised data (day 1 = 100) [6]: 133
- White count [6]: 8200 cells per mm^3
- White count, normalised data (day 1 = 100) [6]: 146
- % Granulocytes [7]: 75%
- % Granulocytes, normalised data (day 1 = 100) [7]: 109
- % Lymphocytes [7]: 19%
- % Lymphocytes, normalised data (day 1 = 100) [7]: 82
- % Monocytes [7]: 6%
- % Monocytes, normalised data (day 1 = 100) [7]: 75
- CD4 [7]: 75 cells per mm^3
- CD4, normalised data (day 1 = 100) [7]: 94
- CD8 [7]: 880 cells per mm^3
- CD8, normalised data (day 1 = 100) [7]: 100
- Granulocytes [7]: 4950 cells per mm^3
- Granulocytes, normalised data (day 1 = 100) [7]: 128
- Lymphocytes [7]: 1250 cells per mm^3
- Lymphocytes, normalised data (day 1 = 100) [7]: 97
- Monocytes [7]: 400 cells per mm^3
- Monocytes, normalised data (day 1 = 100) [7]: 89
- NK [7]: 75 cells per mm^3
- NK, normalised data (day 1 = 100) [7]: 250
- White count [7]: 6600 cells per mm^3
- White count, normalised data (day 1 = 100) [7]: 118
- % Granulocytes [8]: 74.5%
- % Granulocytes, normalised data (day 1 = 100) [8]: 108
- % Lymphocytes [8]: 20%
- % Lymphocytes, normalised data (day 1 = 100) [8]: 86
- % Monocytes [8]: 5.5%
- % Monocytes, normalised data (day 1 = 100) [8]: 69
- CD4 [8]: 80 cells per mm^3
- CD4, normalised data (day 1 = 100) [8]: 100
- CD8 [8]: 730 cells per mm^3
- CD8, normalised data (day 1 = 100) [8]: 83
- Granulocytes [8]: 4020 cells per mm^3
- Granulocytes, normalised data (day 1 = 100) [8]: 104
- Lymphocytes [8]: 1050 cells per mm^3
- Lymphocytes, normalised data (day 1 = 100) [8]: 81
- Monocytes [8]: 440 cells per mm^3
- Monocytes, normalised data (day 1 = 100) [8]: 98
- NK [8]: 20 cells per mm^3
- NK, normalised data (day 1 = 100) [8]: 67
- White count [8]: 5500 cells per mm^3
- White count, normalised data (day 1 = 100) [8]: 98
- CD4 and CD8 T cells, course after the rise [9]: return to the pre-injection i levels six days later
- rise in CD4 T cells after the HEP1 injection [9]: +50%
- rise in CD8 T cells after the HEP1 injection [9]: +28%
- CD4+ and CD8+ T cells, course (subcutaneous administration of one larger dose of HEP1 (FIG. 3)): sharp increase
